Test results from ChEMBL document CHEMBL1133456, “Synthesis and anticonvulsant activity of novel and potent 6,7-methylenedioxyphthalazin-1(2H)-ones” (J Med Chem, 2000).

What was measured:
[1] = Relative lipophilicity expressed as Rm value; type: physicochemical; conditions: octanol/water
[2] = Toxic dose in DBA/2 mice; Values ranges from: 82.6-306; type: toxicity; conditions: DBA/2, mouse, in vivo
[3] = Ratio between TD50 and ED50 from the clonic phase of audiogenic seizures in mice; type: ADME, organism-based; conditions: mouse, in vivo; read-out: Protective index
[4] = Anticonvulsant activity against audiogenic seizures in DBA/2 mice expressed as ED50 values in clonic phase; Values ranges from: 22.0-35.1; type: functional; conditions: Mus musculus
[5] = Anticonvulsant activity against audiogenic seizures in DBA/2 mice expressed as ED50 values in tonic phase; Values ranges from: 16.1-31.5; type: functional; conditions: Mus musculus
[6] = Toxic dose in DBA/2 mice; Values ranges from: 59.6-132; type: toxicity; conditions: DBA/2, mouse, in vivo
[7] = Anticonvulsant activity against audiogenic seizures in DBA/2 mice in clonic phase at a time interval of 45 min after intraperitoneal administration; Values ranges from: 27.2-52.1; type: functional; conditions: Mus musculus, ip, 0.75 h
[8] = Anticonvulsant activity against ATPA induced seizures in DBA/2 mice. activity is expressed as ED50 values in tonus phase; Values ranges from: 32.4-57.3; type: functional; conditions: Mus musculus
[9] = Anticonvulsant activity against ATPA induced seizures in DBA/2 mice. activity is expressed as ED50 values in clonus phase; Values ranges from: 45.4-89.7; type: functional; conditions: Mus musculus
[10] = Toxic does was determined in DBA/2 mice; Values ranges from: 47.5-122; type: toxicity; conditions: DBA/2, mouse
[11] = Toxic dose in DBA/2 mice; Values ranges from: 52.0-194; type: toxicity; conditions: DBA/2, mouse, in vivo
[12] = Toxic dose in DBA/2 mice; Values ranges from: 72.4-135; type: toxicity; conditions: DBA/2, mouse, in vivo
[13] = Anticonvulsant activity against audiogenic seizures in DBA/2 mice expressed as ED50 values in clonic phase; Values ranges from: 24.4-55.1; type: functional; conditions: Mus musculus
[14] = Toxic dose in DBA/2 mice; Values ranges from: 74.8-169; type: toxicity; conditions: DBA/2, mouse, in vivo
[15] = Anticonvulsant activity against audiogenic seizures in DBA/2 mice expressed as ED50 values in tonic phase; Values ranges from: 19.4-50.6; type: functional; conditions: Mus musculus
[16] = Anticonvulsant activity against audiogenic seizures in DBA/2 mice expressed as ED50 values in clonic phase; type: functional; conditions: Mus musculus
[17] = Anticonvulsant activity against audiogenic seizures in DBA/2 mice expressed as ED50 values in tonic phase; type: functional; conditions: Mus musculus
[18] = Toxic dose in DBA/2 mice; type: toxicity; conditions: DBA/2, mouse, in vivo
[19] = Ratio between TD50 and ED50 from the clonic phase of audiogenic seizures; type: ADME; conditions: read-out: Protective index
[20] = Anticonvulsant activity against audiogenic seizures in DBA/2 mice expressed as ED50 values in clonic phase; […]; type: functional; conditions: Mus musculus
[21] = Anticonvulsant activity against audiogenic seizures in DBA/2 mice expressed as ED50 values in tonic phase; Values ranges from: 8.98-27.3; type: functional; conditions: Mus musculus
[22] = Toxic dose in DBA/2 mice; Values ranges from: 59.5-88.2; type: toxicity; conditions: DBA/2, mouse, in vivo
[23] = Anticonvulsant activity against audiogenic seizures in DBA/2 mice in clonic phase at a time interval of 30 min after intraperitoneal administration; Values ranges from: 9.04-49.8; type: functional; conditions: Mus musculus, ip, 0.5 h
[24] = Anticonvulsant activity against audiogenic seizures in DBA/2 mice in clonic phase at a time interval of 45 min after intraperitoneal administration; Values ranges from: 13.8-41.2; type: functional; conditions: Mus musculus, ip, 0.75 h
[25] = Anticonvulsant activity against audiogenic seizures in DBA/2 mice in clonic phase at a time interval of 60 min after intraperitoneal administration; Values ranges from: 18.8-47.0; type: functional; conditions: Mus musculus, ip, 1 h
[26] = Anticonvulsant activity against audiogenic seizures in DBA/2 mice after pretreatment with Aniracetam expressed as ED50 values in clonic phase; Values ranges from: 40.9-79.2; type: functional; conditions: Mus musculus
[27] = Anticonvulsant activity against audiogenic seizures in DBA/2 mice after pretreatment with Aniracetam expressed as ED50 values in tonic phase; Values ranges from: 21.9-46.8; type: functional; conditions: Mus musculus
[28] = Anticonvulsant activity against audiogenic seizures in DBA/2 mice in clonic phase at a time interval of 90 min after intraperitoneal administration; Values ranges from: 30.5-62.3; type: functional; conditions: Mus musculus, ip, 1.5 h
[29] = Anticonvulsant activity against audiogenic seizures in DBA/2 mice expressed as ED50 values in clonic phase; Values ranges from: 9.04-49.8; type: functional; conditions: Mus musculus
[30] = Anticonvulsant activity against audiogenic seizures in DBA/2 mice expressed as ED50 values in tonic phase; Values ranges from: 2.47-23.1; type: functional; conditions: Mus musculus
[31] = Anticonvulsant activity against audiogenic seizures in DBA/2 mice in clonic phase at a time interval of 120 min after intraperitoneal administration; type: functional; conditions: Mus musculus, ip, 2 h
[32] = Anticonvulsant activity against audiogenic seizures in DBA/2 mice in clonic phase at a time interval of 15 min after intraperitoneal administration; Values ranges from: 25.1-42.6; type: functional; conditions: Mus musculus, ip, 0.25 h
[33] = Anticonvulsant activity against ATPA induced seizures in DBA/2 mice expressed as ED50 values in tonic phase; Values ranges from: 22.7-44.8; type: functional; conditions: Mus musculus
[34] = Anticonvulsant activity against AMPA induced seizures in DBA/2 mice expressed as ED50 values in clonic phase; Values ranges from: 27.1-47.3; type: functional; conditions: Mus musculus
[35] = Anticonvulsant activity against ATPA induced seizures in DBA/2 mice expressed as ED50 values in clonic phase; Values ranges from: 25.8-57.7; type: functional; conditions: Mus musculus
[36] = Toxic dose in DBA/2 mice; Values ranges from: 44.3-81.6; type: toxicity; conditions: DBA/2, mouse, in vivo
[37] = Anticonvulsant activity against KA induced seizures in swiss mice; Values ranges from: 30.3-50.1; type: functional; conditions: Mus musculus
[38] = Anticonvulsant activity against Pentylenetetrazole (PTZ) induced seizures in Swiss mice; Values ranges from: 30.9-78.8; type: functional; conditions: Mus musculus
[39] = Anticonvulsant activity against maximal electroshock (MES) induced seizures in Swiss mice; Values ranges from: 29.9-57.3; type: functional; conditions: Mus musculus
[40] = Anticonvulsant activity against AMPA induced seizures in DBA/2 mice expressed as ED50 values in tonic phase; Values ranges from: 32.6-62.7; type: functional; conditions: Mus musculus
[41] = Anticonvulsant activity against audiogenic seizures in DBA/2 mice in clonic phase at a time interval of 30 min; type: functional; conditions: Mus musculus, 0.5 h
[42] = Anticonvulsant activity against audiogenic seizures in DBA/2 mice in clonic phase at a time interval of 45 min; type: functional; conditions: Mus musculus, 0.75 h
[43] = Anticonvulsant activity against audiogenic seizures in DBA/2 mice in clonic phase at a time interval of 60 min; type: functional; conditions: Mus musculus, 1 h
[44] = Anticonvulsant activity against audiogenic seizures in DBA/2 mice in clonic phase at a time interval of 90 min; type: functional; conditions: Mus musculus, 1.5 h
[45] = Anticonvulsant activity against KA induced seizures in DBA/2 mice; type: functional; conditions: Mus musculus
[46] = Anticonvulsant activity against AMPA induced seizures in DBA/2 mice expressed as ED50 values in clonic phase; type: functional; conditions: Mus musculus
[47] = Anticonvulsant activity against audiogenic seizures in DBA/2 mice after pretreatment with Aniracetam expressed as ED50 values in clonic phase; type: functional, Mus musculus
[48] = Anticonvulsant activity against audiogenic seizures in DBA/2 mice in clonic phase at a time interval of 120 min; type: functional; conditions: Mus musculus, 2 h
[49] = Anticonvulsant activity against audiogenic seizures in DBA/2 mice in clonic phase at a time interval of 15 min; type: functional; conditions: Mus musculus, 0.25 h
[50] = Anticonvulsant activity against AMPA induced seizures in DBA/2 mice expressed as ED50 values in tonic phase; type: functional; conditions: Mus musculus
[51] = Anticonvulsant activity against ATPA induced seizures in DBA/2 mice expressed as ED50 values in clonic phase; type: functional; conditions: Mus musculus
[52] = Anticonvulsant activity against ATPA induced seizures in DBA/2 mice expressed as ED50 values in tonic phase; type: functional; conditions: Mus musculus
[53] = Anticonvulsant activity against Pentylenetetrazole (PTZ) induced seizures in Swiss mice.; type: functional; conditions: Mus musculus
[54] = Anticonvulsant activity against maximal electroshock (MES) induced seizures in Swiss mice.; type: functional; conditions: Mus musculus
[55] = Anticonvulsant activity against audiogenic seizures in DBA/2 mice expressed as ED50 values in tonic phases; Values ranges from: 4.02-19.9; type: functional; conditions: Mus musculus
[56] = Anticonvulsant activity against audiogenic seizures in DBA/2 mice expressed as ED50 values in clonic phase; Values ranges from: 6.52-35.4; type: functional; conditions: Mus musculus
[57] = Toxic dose in DBA/2 mice; Values ranges from: 36.1-82.9; type: toxicity; conditions: DBA/2, mouse, in vivo

Compound | Rm [1] | selectivity ratio [3] | ED50 [16] [µmol/kg] | ED50 [17] [µmol/kg] | TD50 [18] [µmol/kg] | selectivity ratio [19] | also measured
O=C1Cc2cc3c(cc2C(c2ccccc2)=NN1)OCO3 | -0.142 | 3.7 |  |  |  |  | TD50 [2]: 159 µmol/kg
Sc1nnc(-c2ccccc2)c2cc3c(cc12)OCO3 | 0.05 | 3.2 |  |  |  |  | ED50 [4]: 27.8 µmol/kg; ED50 [5]: 22.5 µmol/kg; TD50 [6]: 89 µmol/kg
CC1=NN=C(c2ccc(N)cc2)c2cc3c(cc2C1)OCO3 [GYKI-52466] | -0.304 | 2.1 |  |  |  |  | ED50 [7]: 37.3 µmol/kg; ED50 [8]: 43.1 µmol/kg; ED50 [9]: 63.8 µmol/kg; TD50 [10]: 76.1 µmol/kg
Nc1cccc(C2=NNC(=O)Cc3cc4c(cc32)OCO4)c1 | -0.372 | 5.6 |  |  |  |  | TD50 [11]: 101 µmol/kg
Nc1ccc(C2=NNC(=O)Cc3cc4c(cc32)OCO4)cc1 | -0.43 | 4.5 |  |  |  |  | TD50 [12]: 99.1 µmol/kg
Oc1nnc(-c2ccccc2)c2cc3c(cc12)OCO3 | -0.158 | 3.1 |  |  |  |  | ED50 [13]: 36.7 µmol/kg; TD50 [14]: 112 µmol/kg; ED50 [15]: 31.3 µmol/kg
CCCCCNC(=O)n1nc(-c2ccc(N)cc2)c2cc3c(cc2c1=O)OCO3 | 0.101 |  | 13.2 | 5.34 | 56.6 | 4.3 | 
Nc1cccc(-c2nnc(O)c3cc4c(cc23)OCO4)c1 | -0.399 | 3.1 |  |  |  |  | ED50 [20]: 23.3 µmol/kg; ED50 [21]: 15.7 µmol/kg; TD50 [22]: 72.4 µmol/kg
CCCNC(=O)n1nc(-c2ccc(N)cc2)c2cc3c(cc2c1=O)OCO3 | -0.126 |  | 15.8 | 6.82 | 52.8 | 3.3 | 
CNC(=O)n1nc(-c2ccc(N)cc2)c2cc3c(cc2c1=O)OCO3 | -0.364 |  | 23.4 | 16.8 | 59.4 | 2.5 | 
Nc1ccc(-c2nn(C(=O)NC3CCCCC3)c(=O)c3cc4c(cc23)OCO4)cc1 | 0.108 |  | 28.4 | 26.2 | 63.8 | 2.2 | 
CCCCNC(=O)n1nc(-c2cccc(N)c2)c2cc3c(cc2c1=O)OCO3 | 0.01 |  | 31.6 | 22.4 | 101 | 3.2 | 
Nc1ccc(-c2nnc(O)c3cc4c(cc23)OCO4)cc1 | -0.454 | 2.8 |  |  |  |  | ED50 [23]: 21.2 µmol/kg; ED50 [24]: 23.8 µmol/kg; ED50 [25]: 29.7 µmol/kg; ED50 [26]: 56.9 µmol/kg; ED50 [27]: 32 µmol/kg; ED50 [28]: 43.6 µmol/kg; ED50 [29]: 21.2 µmol/kg; ED50 [30]: 7.56 µmol/kg; ED50 [31]: > 50 µmol/kg; ED50 [32]: 32.7 µmol/kg; ED50 [33]: 31.9 µmol/kg; ED50 [34]: 35.8 µmol/kg; ED50 [35]: 38.6 µmol/kg; TD50 [36]: 60.1 µmol/kg; ED50 [37]: 38.9 µmol/kg; ED50 [38]: 49.4 µmol/kg; ED50 [39]: 41.4 µmol/kg; ED50 [40]: 45.2 µmol/kg
CCCCNC(=O)n1nc(-c2ccc(N)cc2)c2cc3c(cc2c1=O)OCO3 | 0.002 |  | 3.25 | 2.23 | 20.4 | 6.3 | ED50 [41]: 3.25 µmol/kg; ED50 [42]: 8.63 µmol/kg; ED50 [43]: 11.2 µmol/kg; ED50 [44]: 26.6 µmol/kg; ED50 [45]: 36.2 µmol/kg; ED50 [46]: 37 µmol/kg; ED50 [47]: 12.3 µM/kg; ED50 ([47]; Mus musculus, read-out: ED50): 17.6 µmol/kg; ED50 [48]: 44.1 µmol/kg; ED50 [49]: 13.9 µmol/kg; ED50 [50]: 47.4 µmol/kg; ED50 [51]: 36.2 µmol/kg; ED50 [52]: 30.1 µmol/kg; ED50 [53]: 41.9 µmol/kg; ED50 [54]: 33.1 µmol/kg
CCNC(=O)n1nc(-c2ccc(N)cc2)c2cc3c(cc2c1=O)OCO3 | -0.235 |  | 42.6 | 35.1 | 91.1 | 2.1 | 
O=[N+]([O-])c1ccc(-c2nnc(O)c3cc4c(cc23)OCO4)cc1 |  |  | > 100 | > 100 |  |  | 
Nc1ccc(-c2nnc(S)c3cc4c(cc23)OCO4)cc1 | -0.205 | 3.6 |  |  |  |  | ED50 [55]: 8.94 µmol/kg; ED50 [56]: 15.2 µmol/kg; TD50 [57]: 54.7 µmol/kg
